Source: US8211402B2, “CA-IX specific radiopharmaceuticals for the treatment and imaging of cancer” (Molecular Insight Pharmaceuticals, Inc., priority 2008, dated 2012)

What was measured:
CA-IX = biological target: T1, CA-IX (Homo sapiens, UniProt Q16790); experiment: Inhibition of carbonic anhydrase IX (4-nitrophenyl acetate hydrolysis, spectrophotometric at 400 nm); assay type: biochemical; conditions: purified human enzyme 100 nM; 9 mM Tris-HCl, 81 mM NaCl, pH 7.4, 25° C.; 10 min preincubation
T1 construct: purchased R&D Systems
Experimental: (§1) Compounds were tested for their ability to inhibit carbonic anhydrase isozymes II and IX in vitro. Purified human enzymes were from R&D Systems (Minneapolis, Minn.). The inhibition constants (Ki) for CA-II and CA-IX were determined by the method of Pocker and Stone. Initial rates of 4-nitrophenyl acetate hydrolysis catalyzed by the different carbonic anhydrase isozymes were measured spectrophotometrically at 400 nm. Solutions of substrate (1×10^−2 to 1×10^−6 M) were prepared in anhydrous acetonitrile. A molar extinction coefficient of 18,000 M^−1·cm^−1 was used for the 4-nitrophenolate formed by hydrolysis under the conditions of the experiment (9 mM Tris-HCl, 81 mM NaCl, pH 7.4, 25° C.). The enzyme concentrations were 100 nM for CA-IX and 30 nM for CA-II. Non-enzymatic hydrolysis rates, determined in the absence of added enzyme, were subtracted from the observed rates. […] Dilutions of inhibitor were added to enzyme solutions and preincubated for 10 min to allow for the formation of the E-I complex prior to the addition of substrate. Acetazolamide was included in all assays as positive controls

CA-II = biological target: T2, CA-II (Homo sapiens, UniProt P00918); experiment: Inhibition of carbonic anhydrase II (4-nitrophenyl acetate hydrolysis, spectrophotometric at 400 nm); assay type: biochemical; conditions: purified human enzyme 30 nM; 9 mM Tris-HCl, 81 mM NaCl, pH 7.4, 25° C.; 10 min preincubation
T2 construct: purchased R&D Systems
Experimental: as §1

IC50 (CA-IX): 77 nM
IC50 (CA-II): 377 nM
SMILES: NS(=O)(=O)c1ccc(NC(=S)N[C@@H](CC(=O)O)C(=O)N[C@@H](CC(=O)O)C(=O)NCc2ccc(I)cc2)cc1 [Comparative Example 1]
